Laboratory results from ChEMBL document CHEMBL1150860, “Cox-2 inhibitory effects of naturally occurring and modified fatty acids” (J Nat Prod, 2001).

Columns and labels:
[1] = biological target: T1, Prostaglandin G/H synthase 1 (Bos taurus, UniProt O62664); experiment: Inhibition of bovine COX1-mediated prostaglandin biosynthesis using [1-14C]arachidonic acid
T1 sequence (O62664 whole entry): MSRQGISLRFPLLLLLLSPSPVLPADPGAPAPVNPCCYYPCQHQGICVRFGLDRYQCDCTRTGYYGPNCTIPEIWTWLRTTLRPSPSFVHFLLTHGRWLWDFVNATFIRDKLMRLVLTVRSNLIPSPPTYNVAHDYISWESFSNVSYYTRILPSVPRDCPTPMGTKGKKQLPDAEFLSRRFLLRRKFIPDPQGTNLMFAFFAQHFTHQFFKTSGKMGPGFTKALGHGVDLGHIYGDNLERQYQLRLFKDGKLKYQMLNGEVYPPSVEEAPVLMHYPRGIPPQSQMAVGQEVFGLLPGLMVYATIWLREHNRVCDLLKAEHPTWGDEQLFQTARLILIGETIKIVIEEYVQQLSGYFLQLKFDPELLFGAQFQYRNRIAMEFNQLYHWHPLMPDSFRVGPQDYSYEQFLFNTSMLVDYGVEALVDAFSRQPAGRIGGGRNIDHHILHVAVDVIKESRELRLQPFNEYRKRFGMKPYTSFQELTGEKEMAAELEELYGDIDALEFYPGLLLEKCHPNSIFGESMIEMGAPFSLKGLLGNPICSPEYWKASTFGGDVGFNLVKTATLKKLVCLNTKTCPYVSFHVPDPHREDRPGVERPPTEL

[2] = Selectivity ratio for IC50 for sheep COX2 to IC50 for […]
[3] = biological target: T2, Prostaglandin G/H synthase 2 (Ovis aries, UniProt P79208); experiment: Inhibition of sheep COX2-mediated prostaglandin biosynthesis using [1-14C]arachidonic acid
T2 sequence (P79208 whole entry): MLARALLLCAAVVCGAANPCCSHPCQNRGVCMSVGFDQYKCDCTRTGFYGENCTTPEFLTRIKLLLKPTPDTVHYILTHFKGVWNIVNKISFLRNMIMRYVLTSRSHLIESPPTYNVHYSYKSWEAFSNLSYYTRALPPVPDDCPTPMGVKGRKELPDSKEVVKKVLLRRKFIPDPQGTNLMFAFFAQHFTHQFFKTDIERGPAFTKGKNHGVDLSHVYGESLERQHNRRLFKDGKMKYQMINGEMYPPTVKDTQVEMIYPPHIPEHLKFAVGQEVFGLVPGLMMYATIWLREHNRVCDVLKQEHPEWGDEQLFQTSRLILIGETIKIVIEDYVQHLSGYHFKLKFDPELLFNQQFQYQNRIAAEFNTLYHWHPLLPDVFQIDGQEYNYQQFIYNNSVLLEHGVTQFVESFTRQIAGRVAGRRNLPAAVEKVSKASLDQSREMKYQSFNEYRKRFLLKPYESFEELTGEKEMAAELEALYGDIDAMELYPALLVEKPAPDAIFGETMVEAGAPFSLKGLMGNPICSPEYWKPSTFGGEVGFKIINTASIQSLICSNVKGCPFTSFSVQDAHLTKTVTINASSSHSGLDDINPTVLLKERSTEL

IC50 [1] [µM]	Ratio IC50 [2]	IC50 [3] [µM]	SMILES
84	1.9	160	CC/C=C\C/C=C\C/C=C\C/C=C\CCSCC(=O)O
26	0.2	3.9	CC/C=C\C/C=C\C/C=C\C/C=C\CCSCCCC(=O)O
> 500		> 500	CC/C=C\C/C=C\C/C=C\C/C=C\CCOCC(=O)O
> 500		> 500	CC/C=C\C/C=C\C/C=C\CC/C=C/COCC(=O)O
81	1.4	120	CC/C=C\C/C=C\C/C=C\CC/C=C/CSCCCC(=O)O
15	0.7	9.8	CC/C=C\C/C=C\C/C=C\C/C=C\C/C=C\C/C=C\CCC(=O)O [DOCONEXENT]
13	0.5	7.1	CC/C=C\C/C=C\C/C=C\C/C=C\C/C=C\CCCC(=O)O [ICOSAPENT]
170	0.6	94	CCCCC/C=C\C/C=C\CCCCCCCC(=O)O [LINOLEIC ACID]
93	0.1	12	CC/C=C\C/C=C\C/C=C\CCCCCCCC(=O)O [LINOLENIC ACID]
> 500		> 500	CCCCCCCCCCCCCC(=O)O [MYRISTIC ACID]
> 500		> 500	CCCCCCCC/C=C\CCCCCCCC(=O)O [OLEIC ACID]
> 500		> 500	CCCCCCCCCCCCCCCC(=O)O [PALMITIC ACID]
> 500		> 500	CCCCCCCCCCCCCCC(=O)O [PENTADECANOIC ACID]

SMILES	IC50 [1] [µM]	Ratio IC50 [2]	IC50 [3] [µM]
CC/C=C\C/C=C\C/C=C\C/C=C\CC/C=C/COCC(=O)O	50	3.6	180
CCCCCCCCCCCCCCCCCC(=O)O [STEARIC ACID]	> 500		> 500
